Results reported in patent US6706740B2, “Fungicidal heterocyclic aromatic amides and their compositions, methods of use and preparation” (Dow AgroSciences LLC, priority 1999, dated 2004).

Columns and labels:
[1] = tested on: Magnaporthe grisea (Pyricularia oryzae—PYRIOR); test: microbe, parasite or virus in culture; assay type: cell-based; conditions: for inhibition at 25 ppm: Pyricularia oryzae, read-out: PYRIOR in vitro Growth Inhibition
[2] = tested on: Rhizoctonia solani (RHIZSO); test: microbe, parasite or virus in culture; assay type: cell-based; conditions: for inhibition at 25 ppm: Rhizoctonia solani, read-out: RHIZSO in vitro Growth Inhibition
[3] = tested on: Mycosphaerella graminicola (Septoria tritici—SEPTTR); test: In vitro fungal growth inhibition, Mycosphaerella graminicola (SEPTTR); assay type: cell-based; conditions: for inhibition at 25 ppm: Zymoseptoria tritici, 25 ppm in growth medium, read-out: SEPTTR in vitro Growth Inhibition
[4] = tested on: Stagonospora nodorum (Leptosphaeria nodorum—LEPTNO); test: In vitro fungal growth inhibition, Stagonospora nodorum (LEPTNO); assay type: cell-based; conditions: for inhibition at 25 ppm: Leptosphaeria, 25 ppm in growth medium, read-out: LEPTNO in vitro Growth Inhibition
Ustilago maydis (USTIMA) = test: microbe, parasite or virus in culture; assay type: cell-based; conditions: for inhibition at 25 ppm: Mycosarcoma maydis, read-out: USTIMA in vitro Growth Inhibition
[5] = tested on: Phytophthora infestans (PHYTIN); test: microbe, parasite or virus in culture; assay type: cell-based; conditions: for inhibition at 25 ppm: Phytophthora infestans, read-out: PHYTIN in vitro Growth Inhibition
Erysiphe graminis—ERYSGT = test: Powdery Mildew of Wheat, in vivo whole plant, 24 Hour Protectant
[6] = tested on: Phytophthora infestans—PHYTIN; test: whole plant or invertebrate; assay type: in vivo; conditions: Phytophthora, in Solanum lycopersicum, 24 h, read-out: PHYTIN in vivo 1 Day Protectant

Row | SMILES | PYRIOR in vitro Growth Inhibition [1] | RHIZSO in vitro Growth Inhibition [2] | SEPTTR in vitro Growth Inhibition [3] | LEPTNO in vitro Growth Inhibition [4] | USTIMA in vitro Growth Inhibition (Ustilago maydis (USTIMA)) | PHYTIN in vitro Growth Inhibition [5] | ERYSGT in vivo 1 Day Protectant (Erysiphe graminis—ERYSGT) | inhibition at 25 ppm [1] [%] | inhibition at 25 ppm [2] [%] | inhibition at 25 ppm [3] [%] | inhibition at 25 ppm [4] [%] | inhibition at 25 ppm (Ustilago maydis (USTIMA)) [%] | inhibition at 25 ppm [5] [%] | pest or weed control at 100 ppm [6] [%] | pest or weed control at 100 ppm (Erysiphe graminis—ERYSGT; Erysiphe, 100 ppm spray, wheat, 24 hour protectant, % control of fungal infection vs untreated plants, read-out: ERYSGT in vivo 1 Day Protectant) [%]
1 | COCCC(=O)Oc1c(OC)ccnc1C(=O)Nc1ccc(C(=NOC)c2cccc(C(F)(F)F)c2)cc1 [Compound 708] | − (key: +: at least 80% growth inhibition; −: less than 80% growth inhibition) | − (key: +: at least 80% growth inhibition; −: less than 80% growth inhibition) | + (key: +: at least 80% growth inhibition; −: less than 80% growth inhibition) | + (key: +: at least 80% growth inhibition; −: less than 80% growth inhibition) | − (key: +: at least 80% growth inhibition; −: less than 80% growth inhibition) | − (key: +: at least 80% growth inhibition; −: less than 80% growth inhibition) | + + |  |  |  |  |  |  |  | 
2 | CON=C(c1ccc(NC(=O)c2nccc(OC)c2OC(C)=O)cc1)c1cccc(C(F)(F)F)c1 [Compound 707] | + (key: +: at least 80% growth inhibition; −: less than 80% growth inhibition) | − (key: +: at least 80% growth inhibition; −: less than 80% growth inhibition) | − (key: +: at least 80% growth inhibition; −: less than 80% growth inhibition) | − (key: +: at least 80% growth inhibition; −: less than 80% growth inhibition) | − (key: +: at least 80% growth inhibition; −: less than 80% growth inhibition) | − (key: +: at least 80% growth inhibition; −: less than 80% growth inhibition) | + + |  |  |  |  |  |  |  | 
3 | COc1ccnc(C(=O)NCCCCCCCCCCC(=O)Oc2cccc(NC(C)=O)c2)c1O [Compound 363] |  |  |  |  |  |  |  | > 80 | < 80 | < 80 | < 80 | < 80 | < 80 |  | 
4 | COc1ccnc(C(=O)NC(CC(N)=O)C(=O)OC/C=C(/C)CCC=C(C)C)c1O (stereo not shown) [Compound 373] |  |  |  |  |  |  |  | < 80 | > 80 | < 80 | < 80 | < 80 | < 80 |  | 
5 | COc1ccnc(C(=O)NCCCCCCCCCCCC(=O)OCCSc2ccccc2)c1O [Compound 364] |  |  |  |  |  |  |  | > 80 | < 80 | < 80 | < 80 | < 80 | < 80 |  | 
6 | COc1ccnc(C(=O)N[C@H]2COC(=O)[C@H](Cc3ccccc3)[C@@H](OC(=O)C(C)C)[C@H](C)OC2=O)c1OC(=O)/C=C/c1ccccc1 [Compound 651] |  |  |  |  |  |  |  | < 80 | < 80 | < 80 | > 80 | < 80 | < 80 |  | 
7 | COc1ccnc(C(=O)N[C@H]2COC(=O)[C@H](Cc3ccccc3)[C@@H](OC(=O)C(C)C)[C@H](C)OC2=O)c1OC(=O)c1ccc(Cl)nc1 [Compound 669] |  |  |  |  |  |  |  | < 80 | < 80 | < 80 | > 80 | < 80 | < 80 | < 25 | < 25
8 | COc1ccnc(C(=O)N[C@H]2COC(=O)[C@H](Cc3ccccc3)[C@@H](OC(=O)C(C)C)[C@H](C)OC2=O)c1OC(=O)CC(C)C [Compound 606] |  |  |  |  |  |  |  | < 80 | < 80 | < 80 | > 80 | < 80 | < 80 |  | 
9 | COc1ccnc(C(=O)NCCCCCCCCCCC(=O)OCCSc2ccccc2)c1O [Compound 362] |  |  |  |  |  |  |  | > 80 | < 80 | < 80 | < 80 | < 80 | < 80 |  | 
